According to the NIST ThermoML archive (doi:10.1021/je5010643):

Assays:
[1] = 101.32 kPa, Liquid; for speed of sound: Frequency=3 MHz, Linear variable-path acoustic interferometer
[2] = refractive index (Na D-line) (dimensionless); conditions: 101.32 kPa, Liquid, Standard Abbe refractometry
[3] = xn = mol fraction of the nth substance listed; conditions: 101.32 kPa, Liquid, x1 = 1; for speed of sound: Frequency=3 MHz, Linear variable-path acoustic interferometer
[4] = refractive index (Na D-line) (dimensionless); xn = mol fraction of the nth substance listed; conditions: 101.32 kPa, Liquid, Standard Abbe refractometry, x1 = 1

C1COCCO1 [1,4-dioxane]
Conditions | mass density, [1] [kg/m3] | refractive index, [2] | speed of sound, [1] [m/s]
295.15 K | 1030.86 | 1.4211 | 1357.7
298.15 K | 1027.59 | 1.4197 | 1344.8
301.15 K | 1024.32 | 1.4183 | 1331.9
304.15 K | 1021.05 | 1.4168 | 1319
307.15 K | 1017.78 | 1.4154 | 1306.2
310.15 K | 1014.51 | 1.4138 | 1293.3
313.15 K | 1011.24 | 1.4124 | 1280.4

CC(C)C(=O)O [2-methylpropanoic acid]
Conditions | mass density, [1] [kg/m3] | refractive index, [2] | speed of sound, [1] [m/s]
295.15 K | 945.28 | 1.3919 | 1100.2
298.15 K | 942.22 | 1.3907 | 1086
301.15 K | 939.16 | 1.3895 | 1072.1
304.15 K | 936.1 | 1.3883 | 1058.2
307.15 K | 933.04 | 1.3872 | 1043.4
310.15 K | 929.98 | 1.386 | 1030.8
313.15 K | 926.92 | 1.3849 | 1015.2

C1COCCO1 [1,4-dioxane] + CC(C)C(=O)O
Conditions | mass density, [3] [kg/m3] | refractive index, [4] | speed of sound, [3] [m/s]
295.15 K | 1030.86 | 1.4211 | 1357.7
298.15 K | 1027.59 | 1.4197 | 1344.8
301.15 K | 1024.32 | 1.4183 | 1331.9
304.15 K | 1021.05 | 1.4168 | 1319
307.15 K | 1017.78 | 1.4154 | 1306.2
310.15 K | 1014.51 | 1.4138 | 1293.3
313.15 K | 1011.24 | 1.4124 | 1280.4
